Measurements published in patent publication US10487087B2, “Positive allosteric modulators of the GLP-1 receptor” (Vanderbilt University, priority 2015, dated 2019).

Assays:
human GLP-1R [1] = molecular target: T1, human GLP-1R (Homo sapiens (Human), UniProt P43220); experiment: GLP-1 assay with GLP1 endogenous agonist (calcium mobilization, EC20 GLP-1 peptide 7-36 amide); format: cell-based; conditions: calcium flux; for EC50: potentiation of EC20 GLP-1 7-36 amide; for Emax at 30 µM: 30 μM compound, EC20 of GLP-1 7-36 amide
T1 sequence (P43220 24-463): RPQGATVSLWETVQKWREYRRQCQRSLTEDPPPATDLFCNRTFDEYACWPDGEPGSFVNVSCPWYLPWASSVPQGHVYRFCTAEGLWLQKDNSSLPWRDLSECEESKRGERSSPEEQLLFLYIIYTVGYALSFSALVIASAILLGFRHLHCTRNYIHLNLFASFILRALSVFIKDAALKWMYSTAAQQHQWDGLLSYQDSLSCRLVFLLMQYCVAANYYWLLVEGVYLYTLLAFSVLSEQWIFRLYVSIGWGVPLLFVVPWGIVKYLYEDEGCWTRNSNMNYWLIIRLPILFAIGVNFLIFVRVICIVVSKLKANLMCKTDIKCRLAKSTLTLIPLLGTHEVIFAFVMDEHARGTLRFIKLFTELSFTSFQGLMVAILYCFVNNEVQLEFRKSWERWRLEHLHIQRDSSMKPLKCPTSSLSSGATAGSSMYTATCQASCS
Source text: A. GLP-1 Assay with GLP1 Endogenous Agonist
(§1) To assess the effects of test compounds on GLP-1 or glucagon potency and efficacy, a high-throughput calcium mobilization assay was used essentially as previously described (Morris L C, Days E L, Turney M, Mi D, Lindsley C W, Weaver C D, Niswender K D, A Duplexed High-Throughput Screen to Identify Allosteric Modulators of the Glucagon-Like Peptide 1 and Glucagon Receptors. J. Biomol. Screen. 2014 Feb. 13, 19(6):847-858). Briefly, human GLP-1R or Glucagon Receptor 9-3-H cells over-expressing a promiscuous G-protein (Millipore, Billerica, Mass.) were plated at 15,000 cells/well in black-walled 384-well plates (Greiner Bio-one, Monroe, N.C.) in Dulbecco's Modified Eagles Medium (DMEM) with 10% FCS, 4.0 mM L-glutamine, non-essential amino acids (NEAAs), and 10.0 mM HEPES without antibiotics. After overnight attachment, cells were washed twice with assay buffer (HBSS supplemented with 20 mM HEPES and 1.0 mM probenecid) using an ELx405CW cell washer (Bio-Tek, Winooski, Vt.) and then loaded with the calcium sensitive dye fluo-4 AM (Invitrogen, Grand Island, N.Y.) at a final concentration of 2.0 μM in assay buffer. After a 45-minute incubation at room temperature, the dye was removed by washing, leaving 20 μL of assay buffer. Next, the cell plate was introduced alongside a 384-well compound plate containing 0.1% final DMSO control wells and 11-point concentration response curves of putative GLP-1 PAMs created using a non-pipet based liquid transfer instrument, ECH0555 (Labcyte, Sunnyvale, Calif.). After a 20 μL compound addition to the appropriate wells, kinetic fluorescent measurements were collected for 2 minutes using an FDSS6000 (Hamamatsu, Bridgewater, N.J.) with 488 nm excitation and 480/540 emission filters. After 2 minutes, 10 μL of an EC20 concentration of GLP-1 peptide 7-36 amide (Phoenix Pharmaceuticals, Burlingame, Calif.), Glucagon (Phoenix Pharmaceuticals, Burlingame, Calif.) Exendin-4 (Tocris Bioscience, Bristol, UK), or Liraglutide (Victoza™, Novo-Nordisk, Denmark) was added and fluorescence was monitored for an additional 2 minutes to observe potentiation of the calcium flux signal. […] Recombinant peptides were reconstituted into assay buffer supplemented with 0.1% fatty acid free BSA (Sigma #A6003) and diluted into borosilicate glass tubes to maximize peptide recovery (Goebel-Stengel M, Stengel A, Tache Y, Reeve J R Jr., The importance of using the optimal plasticware and glassware in studies involving peptides. Anal. Biochem. 2011 Jul. 1, 414(1):38-46).
(§2) Data is from a single experiment unless otherwise noted. Data that is an average of two experiments is noted as “n=2” while data that is an average of three or more experiments is presented as the average plus or minus the standard error of the mean.

human GLP-1R [2] = molecular target: T1, human GLP-1R; experiment: GLP-1 assay with EX-4 synthetic agonist (calcium mobilization, EC20 EX-4); format: cell-based; conditions: calcium flux; for EC50: potentiation of EC20 EX-4, read-out: GLP1 EC50 (Ex-4 synthetic agonist); for Emax at 30 µM: 30 μM compound, EC20 of EX-4
Source text: B. GLP-1 Assay with EX-4 Synthetic Agonist
as §1, with “L-glutamine, 1×” for “L-glutamine,”, “EL×405CW” for “ELx405CW”, “EX-4” for “GLP-1 peptide 7-36 amide”, “Taché” for “Tache”
as §2

| SMILES | EC50 (human GLP-1R [1]) [µM] | EC50 (human GLP-1R [2]) [µM] | Emax at 30 µM (human GLP-1R [1]) [%] | Emax at 30 µM (human GLP-1R [2]) [%] |
| --- | --- | --- | --- | --- |
| Cc1c2cc(F)ccc2n2c(C(=O)NC[C@H]3CCCN3C(C)C)cn(C3CCCC3)c(=O)c12 [Compound 7, (R)-2-cyclopentyl-8-fluoro-N-((1-isopropylpyrrolidin-2-yl)methyl)-10-methyl-1-oxo-1,2-dihydropyrazino[1,2-a]indole-4-carboxamide] | > 30 | > 30 | – | – |
| Cc1c2n(c3ccccc13)[C@H](C(=O)NC[C@@H]1CCCN1C(C)C)CN(C1CCCC1)C2=O [Compound 9, (S)-2-cyclopentyl-N-(((S)-1-isopropylpyrrolidin-2-yl)methyl)-10-methyl-1-oxo-1,2,3,4-tetrahydropyrazino[1,2-a]indole-4-carboxamide] | > 30 | > 30 | 40 | 33 |
| CC(C)N1CCC[C@@H]1CNC(=O)c1cn(C2CCCC2)c(=O)c2c(Cl)c3ccccc3n12 [Compound 11, (R)-10-chloro-2-cyclopentyl-N-((1-isopropylpyrrolidin-2-yl)methyl)-1-oxo-1,2-dihydropyrazino[1,2-a]indole-4-carboxamide] | > 30 | > 30 | 44 | – |
| Cc1c2n(c3ccccc13)[C@@H](C(=O)NC[C@@H]1CCCN1C(C)C)CN(C1CCCC1)C2=O [Compound 8, (R)-2-cyclopentyl-N-(((S)-1-isopropylpyrrolidin-2-yl)methyl)-10-methyl-1-oxo-1,2,3,4-tetrahydropyrazino[1,2-a]indole-4-carboxamide] | 3.6 | 3.6 | 56 | 56 |
| Cc1c2n(c3ccccc13)C(C(=O)NC[C@@H]1CCCN1C(C)C)CN(C1CCCC1)C2=O (stereo partly drawn) [Compound 3, 2-cyclopentyl-N-(((S)-1-isopropylpyrrolidin-2-yl)methyl)-10-methyl-1-oxo-1,2,3,4-tetrahydropyrazino[1,2-a]indole-4-carboxamide] | 5.7 | 11 | 50 | 55 |
| Cc1c2ccccc2n2c(C(=O)NC[C@@H]3CCCN3C(C)C)cn([C@H]3CCOC3)c(=O)c12 [Compound 4, N-(((S)-1-isopropylpyrrolidin-2-yl)methyl)-10-methyl-1-oxo-2-((S)-tetrahydrofuran-3-yl)-1,2-dihydropyrazino[1,2-a]indole-4-carboxamide] | 2.4 | 2.9 | 52 | 50 |
| Cc1c2cc(F)ccc2n2c(C(=O)NC[C@@H]3CCCN3C(C)C)cn(C3CCCC3)c(=O)c12 [Compound 6, (S)-2-cyclopentyl-8-fluoro-N-((1-isopropylpyrrolidin-2-yl)methyl)-10-methyl-1-oxo-1,2-dihydropyrazino[1,2-a]indole-4-carboxamide] | 4.4 | 6.1 | 60 | 54 |
| Cc1c2ccccc2n2c(C(=O)NC[C@H]3CCCN3C(C)C)cn([C@H]3CCOC3)c(=O)c12 [Compound 5, N-(((R)-1-isopropylpyrrolidin-2-yl)methyl)-10-methyl-1-oxo-2-((S)-tetrahydrofuran-3-yl)-1,2-dihydropyrazino[1,2-a]indole-4-carboxamide] | 4.2 | 5.9 | 56 | 55 |
| CC(C)N1CCC[C@@H]1CNC(=O)c1cn(C2CCCC2)c(=O)c2c(Br)c3ccccc3n12 [Compound 13, (R)-10-bromo-2-cyclopentyl-N-((1-isopropylpyrrolidin-2-yl)methyl)-1-oxo-1,2-dihydropyrazino[1,2-a]indole-4-carboxamide] | > 30 | > 30 | 39 | – |
| CC(C)N1CCC[C@H]1CNC(=O)c1cn(C2CCCC2)c(=O)c2c(Br)c3ccccc3n12 [Compound 12, (S)-10-bromo-2-cyclopentyl-N-((1-isopropylpyrrolidin-2-yl)methyl)-1-oxo-1,2-dihydropyrazino[1,2-a]indole-4-carboxamide] | 2.2 | 3.6 | 53 | 59 |
